Test systems include SW-620 colon; MDA-MB-435; OVCAR-8 ovarian; OVCAR-3 ovarian; HCT-15 colon; SK-MEL-28 melanoma; SR leukemia; OVCAR-4 ovarian; RXF 393 renal; HS 578T breast.
Common to all, as to assay: NCI-60 cell line screen, 48 h

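The compound was tested at five concentrations on cells cultured in 96-well plates, with a 48-hour exposure period. GI50 is the concentration that inhibits growth by half. TGI marks complete inhibition of growth.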

Take `COc1ccc(/C=C\c2cc(OC)c(OC)c(OC)c2)cc1NC(=O)/C=C/c1ccc(OC)c(OC)c1`: the GI50 in the test with SW-620 colon was 4.88 µM; in the test on MDA-MB-435, 0.348 µM; in the test on OVCAR-8 ovarian it was 5.1 µM; with OVCAR-3 ovarian, 6.41 µM; in the test with HCT-15 colon it was 4.41 µM; in the test on SK-MEL-28 melanoma, 3.39 µM. In addition, the figures for the GI50 in the test on SR leukemia and with OVCAR-4 ovarian were 0.412 µM and 8.01 µM, respectively. Besides, the TGI is over 100 µM in the test with SW-620 colon; 1.71 µM in the test with MDA-MB-435; over 100 µM in the test with OVCAR-8 ovarian; over 100 µM in the test on OVCAR-3 ovarian; over 100 µM in the test on HCT-15 colon; over 100 µM with SK-MEL-28 melanoma. For the same molecule, the TGI in the test on SR leukemia and in the test on OVCAR-4 ovarian was over 100 µM each time.

For `N#CN1CC[C@@H]2CC3(CCC2C1)OCCO3` (some centres not stated), the TGI in the test with SW-620 colon, in the test with OVCAR-8 ovarian, in the test on OVCAR-3 ovarian, with HCT-15 colon, in the test on SR leukemia and with RXF 393 renal was over 100 µM each time. Moreover, in the test on OVCAR-4 ovarian, the TGI was over 100 µM.

With `O=C(c1ccccc1)c1nc2c(Cl)ccc(Cl)c2cc1C(Br)Br`, the TGI in the test on SW-620 colon is 1.19 µM; with OVCAR-8 ovarian it was 7.59 µM; in the test on OVCAR-3 ovarian, 3.15 µM; in the test on HCT-15 colon, 2.88 µM; with SK-MEL-28 melanoma, 0.637 µM; in the test with SR leukemia it was 13.1 µM. For the same molecule, the TGI in the test with RXF 393 renal came out at 4.05 µM; with OVCAR-4 ovarian, 3.48 µM.

Regarding `COC(=O)NC1(NC(=O)OC)NC(=O)c2ccccc2N1`, the TGI in the test with SW-620 colon, in the test with OVCAR-8 ovarian, in the test on OVCAR-3 ovarian, with HCT-15 colon, in the test with SK-MEL-28 melanoma and with HS 578T breast was over 100 µM in each case. The TGI in the test on SR leukemia and in the test with OVCAR-4 ovarian was over 100 µM each time.

As to `N.N.N.N.N#N.N#N.[Cl-].[Os+6]`, the GI50 in the test on SW-620 colon, with OVCAR-8 ovarian, in the test with OVCAR-3 ovarian, in the test on HCT-15 colon, with SK-MEL-28 melanoma and in the test on SR leukemia was over 100 µM throughout. For the same molecule, the GI50 in the test on RXF 393 renal and in the test with OVCAR-4 ovarian was over 100 µM in each case. In addition, the TGI with SW-620 colon, in the test with OVCAR-8 ovarian, with OVCAR-3 ovarian, in the test on HCT-15 colon, in the test with SK-MEL-28 melanoma and in the test with SR leukemia was over 100 µM throughout. Also, the TGI in the test with RXF 393 renal and in the test with OVCAR-4 ovarian was over 100 µM in each case.

For `CN(C)CCNC(=O)c1ccc2c(c1)oc1cc3ccccc3c(=O)n12`, the GI50 with SW-620 colon was 15.5 µM; in the test on MDA-MB-435 it was 15.1 µM; with OVCAR-8 ovarian, 19.4 µM; in the test on OVCAR-3 ovarian it was 13.2 µM; in the test with HCT-15 colon it was 12.8 µM; with SR leukemia it was 13.4 µM. In addition, in the test with RXF 393 renal, the GI50 was 19.6 µM. The TGI was 31.7 µM with SW-620 colon; 32.7 µM in the test with MDA-MB-435; 42.5 µM in the test on OVCAR-8 ovarian; 30.4 µM with OVCAR-3 ovarian; 31.4 µM in the test on HCT-15 colon; over 100 µM in the test on SR leukemia. For the same molecule, the TGI with RXF 393 renal was determined as 36.6 µM.

Regarding `COC(=O)c1csc(-c2csc(CCNC(=O)OC(C)(C)C)n2)n1`, the TGI in the test with SW-620 colon, in the test with MDA-MB-435, in the test on OVCAR-8 ovarian, in the test on OVCAR-3 ovarian, with HCT-15 colon and in the test on SK-MEL-28 melanoma was over 100 µM each time. Moreover, the TGI in the test with HS 578T breast, in the test with SR leukemia and in the test on RXF 393 renal was over 100 µM throughout.

Regarding `Cc1nc(-n2nc(-c3ccccc3)cc2-c2ccccc2)sc1C(=O)CC(=O)C(=O)Nc1ccc(Cl)c(Cl)c1`, the TGI with SW-620 colon, in the test with OVCAR-8 ovarian, in the test with OVCAR-3 ovarian, in the test with HCT-15 colon, in the test with SR leukemia and in the test with RXF 393 renal was over 100 µM each time. The molecule further gave a TGI in the test on OVCAR-4 ovarian of over 100 µM.

As to `CC1=CC(=O)NP(=O)(Oc2ccc(Cl)cc2)N1` (configuration not stated), the TGI in the test with SW-620 colon, in the test with OVCAR-8 ovarian, with OVCAR-3 ovarian, in the test with HCT-15 colon, with SK-MEL-28 melanoma and with SR leukemia was over 100 µM throughout. The TGI in the test on RXF 393 renal and in the test on OVCAR-4 ovarian was over 100 µM in each case.

With `CC(C)(C)C1=CC(=N/N=c2\scc(-c3ccccc3)n2Cc2ccccc2)C=C(C(C)(C)C)C1=O`, the TGI in the test with SW-620 colon, in the test with OVCAR-8 ovarian, with OVCAR-3 ovarian, in the test with HCT-15 colon, with SK-MEL-28 melanoma and in the test on SR leukemia was over 100 µM each time. The TGI in the test on RXF 393 renal and in the test on OVCAR-4 ovarian was over 100 µM in each case.

As for `CC(=O)OC1(Sc2ccccc2)CC2[C@H]3COC(C)(C)O[C@H]3CC[C@@]2(C)CC1=O` (some centres not stated), the TGI was over 100 µM with SW-620 colon; over 100 µM in the test with OVCAR-8 ovarian; over 100 µM in the test with OVCAR-3 ovarian; over 100 µM with HCT-15 colon; over 100 µM with SK-MEL-28 melanoma; 45.4 µM in the test with SR leukemia. Besides, the TGI in the test on RXF 393 renal and in the test with OVCAR-4 ovarian was over 100 µM throughout.

Turning to `COc1ccc(-c2cc(=O)c3c(O)c(O)c(OC)cc3o2)cc1O`, the TGI in the test with SW-620 colon, with OVCAR-8 ovarian, with OVCAR-3 ovarian, in the test with HCT-15 colon, with SK-MEL-28 melanoma and in the test on SR leukemia was over 100 µM throughout. Moreover, the TGI with RXF 393 renal and in the test with OVCAR-4 ovarian was over 100 µM in each case.

`Cc1cccc(NC(=O)c2c(N)[n+]([O-])c3ccccc3[n+]2[O-])c1`: the TGI in the test with SW-620 colon was 21.4 µM; in the test with OVCAR-8 ovarian it was 32.3 µM; in the test on OVCAR-3 ovarian, 29.1 µM; in the test with SK-MEL-28 melanoma, 20.7 µM; with SR leukemia, over 100 µM; with RXF 393 renal, 13.3 µM. The same molecule had a TGI in the test on OVCAR-4 ovarian of 23.3 µM.

Take `CC1(Cl)C(=O)NC(=O)N([C@H]2C[C@H](O)[C@@H](CO)O2)C1N=[N+]=[N-]` (some centres not stated): the TGI in the test with SW-620 colon, with OVCAR-8 ovarian, in the test with OVCAR-3 ovarian, in the test with HCT-15 colon, with SK-MEL-28 melanoma and with SR leukemia was over 100 µM in each case. In addition, the TGI in the test on RXF 393 renal and in the test with OVCAR-4 ovarian was over 100 µM throughout.

Values taken from PubChem BioAssay (NCI).
